Results as given in patent publication EP0241232A1, “Isoxazolylethanol derivatives” (SHIONOGI SEIYAKU KABUSHIKI KAISHA, priority 1986, dated 1987).
Like-named read-outs stand apart in the source and are kept apart here.

Experiments:
[1] = tested on: Candida albicans KE-2; experiment: Inhibition test against pseudomycelium formation of Candida albicans; assay type: cell-based; settings: KE2, minimum effective concentration preventing typical pseudomycelium formation, Eagle-MEM + 20 % calf serum, 18 hours at 37 °C, read-out: Inhibitory Concentration of Pseudo-myselium Formation
Method: Candida albicans KE-2 was inoculated to Eagle-MEM medium (Nissan 2 made by Nissui Seiyaku, Ltd.) supplemented with 20 % calf serum so that its final inoculum of yeast cell might be 1 x 10^6 yeast cells per milliliter. The test compounds were added thereon in two fold dilution series. After incubation for 18 hours at 37 °C, the fungal growth in each drug concentration was smeared and fixed on a slide glass, and the presence or absence of the pseudomycelium formation was examined by a microscope following Giemsa staining. Minimum effective concentration was defined as the lowest concentration of the compound which prevented typical pseudomycelium formation.

[2] = tested on: Rhizoctonia solani; experiment: Control by seed-soaking: Rhizoctonia damping-off in cucumber; assay type: in vivo; settings: 360 h, read-out: Control Index Rhizoctonia Damping-Off in Cucumber
Method: (§1) The test compound was dissolved in 0.2 ml of acetone and suspended in demineralized distilled water containing a small amount of spreader, to a concentration of 500 ppm. The suspension was further diluted to one quarter dilution with demineralized distilled water (containing a small amount of spreader) to give a suspension in 125 ppm. All seeds of oats, wheat and cucumber were soaked in these suspensions at room temperature for an hour and then the seeds were air-dried.
(§2) The seeds as described above were sown in plastic pots (diameter : 9 cm). For rust and powdery mildews, the pots were kept in a glasshouse for 1 - 3 weeks until the seeds grew to young plants. The young oats (10 - 20 plants per pot) were inoculated by dusting with spores of Puccinia coronata, and the wheat (10 - 20 plants per pot) was also inoculated by spraying with spores of Erysiphe graminis f. sp. tritici, and the cucumber (1 plant per pot) was also inoculated by spraying with spore suspension of Sphaerotheca fuliginea. These inoculated plants were further kept in a glasshouse for 10 - 14 days until assessment. For damping-off, the treated seeds were sown in paper pots (diameter : 7.5 cm; depth : 6 cm) which contained soil infested with Rhizoctonia solani by mixing sterilized soil and pre-cultured fungus. Then the pots were kept in a humid glasshouse at 25 - 32 ^*C.
(§3) Damping-off was observed 15 days after sowing, and disease degree and control effect were obtained from the following equations. [formula] [formula] where diseased seedlings included damping-off and unemerged'seeds due to infection. For the foliar diseases, disease development was observed 10 - 14 days after inoculation of spores, and control effect was obtained by the following index.

[3] = tested on: Sphaerotheca fuliginea; experiment: Control of cucumber powdery mildew by foliar spray; assay type: in vivo; settings: observed 10 days after inoculation; for Control Index Preventive Effect: inoculation 24 hr. after application; for Control Index Curative Effect: inoculation 24 hr. before application
Method: The test compound was dissolved in a small amount of acetone and suspended in demineralized distilled water containing a spreader, to a concentration of 7.8 ppm and 2.0 ppm. Young cucumber plants (c.v. Tsukuba-Shiroibo) of 2-leaf stage grown in pots were sprayed sufficiently with the suspension.
Spores of Sphaerotheca fuliginea cultured in cucumber plants were collected and suspended in distilled water. Inoculation was made by spraying with the spore suspension to the test plant of 24 hr. after application of the test compound (preventive control) or 24 hr. before application (curative control).
Development of the disease was observed 10 days after inoculation and control index was obtained as described in Experiment 3.

[4] = tested on: Candida albicans KE-2; experiment: Therapeutic effect against experimental candidiasis in mice; assay type: in vivo; settings: KE2, po, 120 h, mouse survival ratio on the 5th day after infection, Jcl-ICR female mouse, 50 mg/kg orally three times (0, 4, 24 hours)
Method: After Candida albicans KE-2 was incubated on Sabouraud's glucose agar at 28 °C for 48 hr., it was suspended in Sabouraud's glucose broth and the cells ([…]) were injected to a tail vein of Jcl-ICR female mouse (4 weeks age; weight : 18 - 20 g). A suspension of the test compound in 2 % gum arabic was orally administered three times, immediately after infection of the yeast ( 0 hour), after 4 hours and after 24 hours, as a dosage of 50 mg/kg. Non-treated group was used as control. Each eight mice per group was used in control group and treated group. All the mice in control group died within 48 hr. after infection. Therapeutic effect of the test compound was judged by mouse survival ratio on the 5th day after infection.

[5] = tested on: Puccinia coronata; experiment: Control by seed-soaking: crown rust in oats; assay type: in vivo
Method: as §1, §2, §3

[6] = tested on: Erysiphe graminis f. sp. tritici; experiment: Control by seed-soaking: powdery mildew in wheat; assay type: in vivo
Method: as §1, §2, §3

[7] = tested on: Sphaerotheca fuliginea; experiment: Control by seed-soaking: powdery mildew in cucumber; assay type: in vivo
Method: as §1, §2, §3

[8] = seed-soaking, 125 ppm, observed 15 days after sowing, control effect by equation
[9] = seed-soaking, 500 ppm, observed 15 days after sowing, control effect by equation

SMILES	minimal effective concentration [1] [µg/mL]	pest or weed control at 125 ppm [2, 8] [%]	pest or weed control at 500 ppm [2, 9] [%]	Control Index Preventive Effect ([3]; foliar spray 2.0 ppm)	Control Index Curative Effect ([3]; foliar spray 2.0 ppm)	Control Index Preventive Effect ([3]; foliar spray 7.8 ppm)	Control Index Curative Effect ([3]; foliar spray 7.8 ppm)	responders at 50 mg/kg [4] [%]	also measured
Cc1onc(C(O)(Cn2cncn2)c2ccc(Cl)cc2)c1Cl (stereo not shown) [Ib - 1, 1-(4-Chlorophenyl)-1-(5-methyl-4-chloroisoxazol-3-yl)-2-(1H-1,2,4-triazol-1-yl)ethanol]	0.31	35	88	70 (Leaves covered with symptom between 16 % and 45 % area)	97 (Leaves covered with symptom less than 3 % area)	97 (Leaves covered with symptom less than 3 % area)	100		
Cc1cc(C(O)(Cn2cncn2)c2ccc(Cl)cc2)no1 (stereo not shown) [Ia - 5]	0.02	66	94	70 (Leaves covered with symptom between 16 % and 45 % area)	97 (Leaves covered with symptom less than 3 % area)	97 (Leaves covered with symptom less than 3 % area)	100	87.5	Control Index Crown Rust in Oats ([5]; 125 ppm): 50 (Leaves covered with symptom between 46 % and 65 % area); Control Index Crown Rust in Oats ([5]; 500 ppm): 97 (Leaves covered with symptom less than 3 % area); Control Index Powdery Mildew in Wheat ([6]; 125 ppm): 70 (Leaves covered with symptom between 16 % and 45 % area); Control Index Powdery Mildew in Wheat ([6]; 500 ppm): 100; Control Index Powdery Mildew in Cucumber ([7]; 125 ppm): 0 (Leaves covered with symptom more than 66 %); Control Index Powdery Mildew in Cucumber ([7]; 500 ppm): 70 (Leaves covered with symptom between 16 % and 45 % area)
Cc1cc(C(O)(Cn2cncn2)c2ccccc2)no1 (stereo not shown) [Ia - 9]	0.31								
CC(C)(C)c1cc(C(O)(Cn2cncn2)c2ccc(F)cc2F)no1 (stereo not shown) [Ia - 12]	0.31								
CCc1cc(C(O)(Cn2cncn2)c2ccc(F)cc2F)no1 (stereo not shown) [Ia - 10]	0.08							50	
Cc1cc(C(O)(Cn2ccnc2)c2ccc(F)cc2)no1 (stereo not shown) [Ia - 13, 1-(4-Fluorophenyl)-1-(5-methylisoxazol-3-yl)-2-(1H-imidazol-1-yl)ethanol]	0.63								
Cc1cc(C(O)(Cn2cncn2)c2ccc(F)cc2)no1 (stereo not shown) [Ia - 6]	0.16	54	85						
Cc1onc(C(O)(Cn2cncn2)c2ccccc2)c1Cl (stereo not shown) [Ib - 3]	1.25								
Cc1onc(C(O)(Cn2cncn2)c2ccc(F)cc2)c1Cl (stereo not shown) [Ib - 2]	1.25	60	85						
CCCCc1cc(C(O)(Cn2cncn2)c2ccc(F)cc2F)no1 (stereo not shown) [Ia - 11]	0.04							50	
OC(Cn1cncn1)(c1ccc(F)cc1)c1ccon1 (stereo not drawn) [Ia - 1, 1-(4-Fluorophenyl)-1-(isoxazol-3-yl)-2-(1H-1,2,4-triazol-l-yl)ethanol]	0.31	71	90					87.5	Control Index Crown Rust in Oats ([5]; 125 ppm): 50 (Leaves covered with symptom between 46 % and 65 % area); Control Index Crown Rust in Oats ([5]; 500 ppm): 90 (Leaves covered with symptom between 4 % and 15 % area); Control Index Powdery Mildew in Wheat ([6]; 125 ppm): 70 (Leaves covered with symptom between 16 % and 45 % area); Control Index Powdery Mildew in Wheat ([6]; 500 ppm): 100; Control Index Powdery Mildew in Cucumber ([7]; 125 ppm): 0 (Leaves covered with symptom more than 66 %); Control Index Powdery Mildew in Cucumber ([7]; 500 ppm): 70 (Leaves covered with symptom between 16 % and 45 % area)
Cc1cc(C(O)(Cn2cncn2)c2ccc(F)cc2F)no1 (stereo not shown) [Ia - 8]	0.08	74	94	90 (Leaves covered with symptom between 4 % and 15 % area)	90 (Leaves covered with symptom between 4 % and 15 % area)	97 (Leaves covered with symptom less than 3 % area)	100	50	
CC(C)(C)C(=O)C(Oc1ccc(Cl)cc1)n1cncn1 (stereo not shown) [Triadi-mefon, reference compound]				90 (Leaves covered with symptom between 4 % and 15 % area)	90 (Leaves covered with symptom between 4 % and 15 % area)	90 (Leaves covered with symptom between 4 % and 15 % area)	90 (Leaves covered with symptom between 4 % and 15 % area)		Control Index Crown Rust in Oats ([5]; 125 ppm): 50 (Leaves covered with symptom between 46 % and 65 % area); Control Index Crown Rust in Oats ([5]; 500 ppm): 97 (Leaves covered with symptom less than 3 % area); Control Index Powdery Mildew in Wheat ([6]; 125 ppm): 90 (Leaves covered with symptom between 4 % and 15 % area); Control Index Powdery Mildew in Wheat ([6]; 500 ppm): 100; pest or weed control at 125 ppm [2]: 34%; pest or weed control at 500 ppm [2]: 49%; Control Index Powdery Mildew in Cucumber ([7]; 125 ppm): 0 (Leaves covered with symptom more than 66 %); Control Index Powdery Mildew in Cucumber ([7]; 500 ppm): 70 (Leaves covered with symptom between 16 % and 45 % area)
Cc1cc(C(O)(Cn2cncn2)c2ccc(Cl)cc2Cl)no1 (stereo not shown) [Ia - 7]	0.02	92	94	90 (Leaves covered with symptom between 4 % and 15 % area)	97 (Leaves covered with symptom less than 3 % area)	100	100		Control Index Crown Rust in Oats ([5]; 125 ppm): 70 (Leaves covered with symptom between 16 % and 45 % area); Control Index Crown Rust in Oats ([5]; 500 ppm): 100; Control Index Powdery Mildew in Wheat ([6]; 125 ppm): 70 (Leaves covered with symptom between 16 % and 45 % area); Control Index Powdery Mildew in Wheat ([6]; 500 ppm): 70 (Leaves covered with symptom between 16 % and 45 % area)
